The record followed here is patent US7160916B2, “Method of increasing bone density or treating osteoporosis” (Yung Shin Pharmaceutical Ind. Co., Ltd., priority 2003, dated 2007).

One experiment has as its system Day-3 osteoblasts. Nature of the experiment: Fibronectin fibrillogenesis by immunocytochemistry. Conditions: 10 μM for 24 hr. The format is cell-based, rat. The protocol: Fibronectin (Fn) plays an important role in the regulation of adhesion, migration, and maturation of osteoblasts. Fn fibrillogenesis is involved in the process of bone mineralization. The effect of Indazole 1 on Fn fibrillogenesis in cultured osteoblasts was examined. The immobilized form of fibrillogenesis from the endogenously released Fn by monolayer Day 3˜5 osteoblasts was studied using immunocytochemistry. Incubation of Day-3 osteoblasts with Indazole 1 (10 μM) for 24 hr increased extracellular Fn assembly. Flow cytometry was used to analyze the effect of Indazole 1 on the surface expression of α5 and β1 integrins. […] On the other hand, the collagen synthesis was increased by Indazole 1 only at a higher concentration of 10 μM.

In a further experiment the test system is osteoclast precursors. Nature of the experiment: Osteoclastogenesis (TRAP-positive multinucleated cells). The format is cell-based, rat. Conditions: M-CSF 20 ng/ml and sRANKL 50 ng/ml, 8 days. The protocol: Osteoclastogenesis: Bone marrow cells were prepared by removing femurs from 6–8-week-old SD rats and flushing the bone marrow cavity with DMEM which was supplemented with 20 mM HEPES and 10% heat-inactivated FCS, 2 mM-glutamine, penicillin (100 U/ml) and streptomycin (100 μg/ml). After 24 hr, the non-adherent cells (hematopoietic cells) were collected and used as osteoclast precursors. The cells were seeded at 1×10^6 cells/well (0.5 ml) in 24-well plates in the presence of human recombinant soluble RANKL (50 ng/ml, Peprotech EC Ltd., London, United Kingdom) and murine M-CSF (20 ng/ml, Genzyme, Cambridge, Mass.). The culture medium was changed every 3 days. After 8˜10 days, osteoclast formation was confirmed by an assay of tartrate-resistant acid phosphatase (TRAP) (Kotake et al., 1999). In brief, the adherent cells were fixed with 10% formaldehyde in phosphate-buffered saline for 3 min. After treatment with ethanol/acetone (50:50 v/v) for 1 min, the cell surface was air dried and incubated for 10 min at room temperature in an acetate buffer (0.1 M sodium acetate, pH 5.0) containing 0.01% naphthol AS-MX phosphate (Sigma) and 0.03% fast red violet LB salt (Sigmna) in the presence of 50 mM sodium tartrate. Osteoclast-like TRAP-positive cells in each well were scored by counting the number of TRAP-positive and multinucleated cells containing more than three nuclei.

The test system of experiment [1] is ovariectomized adult female rats. The experiment in a line: Ovariectomy-induced bone loss: bone size, BMD, BMC, bone volume. The format is in vivo, rat. From the text:
Bone histomorphometry: After formalin fixation of tibia was completed, the tibiae were then decalcified in 0.5 N hydrochloric acid, dehydrated in an ascending series of ethanol solution and acetone, and embedded in paraffin. Serial sections (5 μm) were cut longitudinally and stained with Mayer's hematoxylin-eosin solution (Yang et al. (1993) Calcif Tissue Int 52:57–61). Images of the growth plate and proximal tibia were photographed using a photoMicroGraphic Digitize integrate System (MGDS; Total-Integra Technology Co., Ltd., Taipei, Taiwan). Bone volume measurements were performed on the whole secondary spongiosa, which is located under the primary spongiosa and characterized by a network of larger trabeculae. Bone volumes were calculated using an image analysis software. All measurements were done in a single-blind fashion. Ovariectomy and cut of sciatic nerve: Ovariectomy and cut of sciatic nerve were performed in adult female and male rats (3 month-old), respectively. After surgery, the rats were injected with Indazole 1 (i.p., 1 mg/Kg) or a vehicle daily for 4 weeks. On the day following the last injection, the rats were sacrificed and their tibia and femur were removed. Tibia and femur Preparation: At the end of the program, the rats were sacrificed by decapitation. The tibiae were removed, cleaned of soft tissue, and the length of the tibia was measured with a precision caliper (±0.05 mm) as described by Weinreb et al. (1991) J Bone Miner Res 6:725–731. The tibiae were fixed in 10% formaldehyde for 48 h at 4° C. for bone histomorphometry analysis. Some of the tibia and femur were also removed and kept at −20° C. for bone mineral analysis. Analysis of bone mineral density (BMD) and content (BMC): BMD and BMC of the tibia and femur were measured with a dual-energy X-ray absorptiometer (DEXA, XR-26; Norland, Fort Atkinson, Wis.). The mode adapted to the measurements of small subjects was adopted. A coefficient of variation of 0.7% was calculated from daily measurements of BMD on a lumbar phantom for more than 1 year (Yang et al. (1998) Calcif Tissue Int 63:86–90). The tibia and femur were thawed to room temperature before bone mineral analysis. The whole tibiae and femur were scanned and BMD and BMC were measured by absorptiometer. Prevention of bone loss: Ovariectomy (OVX) was performed in adult female rats (n=28). After ovariectomy, one group of the ovariectomized rats (n=16) were injected with Indazole 1 (i.p., 1 mg/kg/day), and the other group (n=12) were not. 15 un-ovarietctomized adult female rats were used as sham-operated controls and were not injected with Indazole 1. […] A 60% reduction in bone volume was observed 4 weeks after ovariectomy. […] The bone volume reached 76% of sham-operated controls.

Experiment [2] shares this test system. The experiment in a line: Biomechanical three-point bending test of femurs of OVX rats. The class given is in vivo, rat. Here is the method:
Ovariectomy and cut of sciatic nerve: Ovariectomy and cut of sciatic nerve were performed in adult female and male rats (3 month-old), respectively. After surgery, the rats were injected with Indazole 1 (i.p., 1 mg/Kg) or a vehicle daily for 4 weeks. On the day following the last injection, the rats were sacrificed and their tibia and femur were removed. Biomechanical three-point bending test: Mechanical properties of bone tissues were measured via a three-point bending test using a MTS-858 testing machine (MTS System Inc., Minneapolis, Minn.). The span of two support points was 20 millimeters and the deformation rate was 1 mm/min. Load/deformation curves were acquired by Team 490 software (version 4.10, Nicolet Instrument Technologies Inc., Madison, Wis.). Sigma Plot 6.0 software (SPSS Inc., Chicago, Ill.) was used to calculate extrinsic material properties of bone samples, including maximal load, ultimate load, energy to maximal load, energy to ultimate load, and linear stiffness. Energy to maximal load and energy to ultimate load were calculated as the areas under the load/deforming curves. Stiffness was calculated as the slope of the linear portion of the load/deformation curves. The cross-sectional moment of inertia was calculated under the assumption that the cross-sections were elliptically shaped (Turner et al., The effects of fluoridated water on bone strength. Orthop Res (1992) 10: 581–587). Maximal stress, ultimate stress, and elastic modulus (Young's modulus) were calculated using the methods described in Turner et al., Basic biomechanical measurements of bone: a tutorial, Bone (1993) 14:595–608.

Setting [3] is: OVX rats, 1 mg/kg daily for 4 weeks.
The mark [4] stands for this setting: OVX rats, i.p. 1 mg/kg daily for 1 month, mean ± S.E.
[5] abbreviates: femurs, OVX rats, i.p. 1 mg/kg daily for 4 weeks.

Marks after values point to notes of the source that are not given here.

As to `OCc1ccc(-c2nn(Cc3ccccc3)c3ccccc23)o1` [Indazole 1, 1-benzyl-3-(5′-hydroxymethyl-2′-furyl)-indazole], in the experiment on Day-3 osteoblasts, the “extracellular Fn assembly” value is “increased”. Moreover, in the experiment on osteoclast precursors, the differentiation of osteoclast result is “inhibited the differentiation of osteoclast in a concentration-dependent manner”. For the same compound, in experiment [1] (setting [3]), the “bone volume relative to sham-operated controls” value was 76 % of sham-operated controls and the “loss of trabecular bone of tibia secondary spongiosa” value is “reduced loss of trabecular bone”. In experiment [1] (setting [4]), the “Femur BMC” value is 0.281 ± 0.001^b, the “Femur BMD” value is 0.112 ± 0.002^b, the Femur length came to 3.55 ± 0.01 cm and the Femur weight is reported as 0.87 ± 0.01 g. Moreover, in experiment [1] (setting [4]), the “Tibia BMC” value is listed as 0.173 ± 0.011^b, the “Tibia BMD” value was 0.097 ± 0.002^b, the Tibia length was 4.05 ± 0.03 cm and the Tibia weight was 0.67 ± 0.01 g. Also, in experiment [1] (daily injection, i.p. 1 mg/kg/day), the “ovariectomy-induced loss of BMD and BMC in both tibia and femur” value is recorded as “provided protection”. In experiment [2] (setting [5]), the Maximal load came out at 100.5 ± 3.0 N, the Ultimate load is on record as 79.8 ± 3.3 N and the Ultimate stress was 14.6 ± 2.5 Mpa. Besides, the “ultimate stress and Young's modulus of femurs compared with sham-operated controls” value in experiment [2] (treated OVX rats) is reported as “only slightly lower”.
